# Measured values as given in patent US9823232B2, “Ligand for detection of chromium (III) and a process for the preparation thereof” (COUNCIL OF SCIENTIFIC & INDUSTRIAL RESEARCH, priority 2013, dated 2017).
# “Also recorded” adds a separate entry of the source.
# How the values were obtained:
# [1] = Absorption (UV-Vis) spectral titration with B-H plot in aqueous Triton X 100 / Tris buffer pH 7.2; format: binding
# Method: (§1) The association constant (Kabs) of 2.4×10^3 M^−1 for the L1-Cr^3+ formation is evaluated from the absorption titration and B-H plot data (FIG. 3). A good linear fit data supported the 1:1 binding stoichiometry. For emission titration, a significant increase in emission intensity at 583 nm is observed with an increase in concentration of Cr^3+ in aqueous medium. […] The 1:1 binding stoichiometry is further confirmed from Jobs plot and presence of signal for m/z at 616.87 (Calc 616.75) in FAB-MS analysis of a mixture of L1 (1.59×10^-5 M) and (9.5×10^−5 M) Cr(ClO4)3 for [L1+Cr^3+].
# (§2) A stock solution of the receptor L1 (6.9×10^−4 M) was prepared in acetonitrile medium and 57 μL of this stock solution was added to 2.5 ml of 0.4 mM TX100 in Tris-HCL aqueous buffer medium having solution pH 7.2 to make the effective ligand concentration of 1.59×10^−5 M. The solution was used for all the photophysical studies. Cr^3+ stock solution (4.75×10^−3 M) was prepared in pure aqueous medium and was used for all studies. Emission titrations were also performed as a function of [TX100](0.1 mM, 0.23 mM, 0.32 mM, 0.4 mM, 0.6 mM) in Tris-HCl buffer medium of pH 7.2 by monitoring the increase in emission intensity (using λExt=530 nm, λMon=583 nm and slit width 2/2 nm) on binding of L1 to Cr^3+ for optimizing the maximum enhancement of the emission intensity. The relative fluorescence quantum yields (t) were estimated using equation 1 for different concentration of TX100 (0.1 mM, 0.23 mM, 0.32 mM, 0.4 mM, 0.6 mM) in Tris-HCl buffer medium (having solution pH of 7.2) and by using the Rhodamine B (φf=0.3 in aqueous medium at RT) as a reference. φf=φf′(Isample/Istd)(Astd/Asample)(η^2sample/η^2std) Eq. 1 where, φf′ was the absolute quantum yield for the rhodamine B and was used as reference; Isample and Istd are the integrated emission intensities; Asample and Astd are the absorbances at the excitation wavelength, and ηsample and ηstd are the respective refractive indices. Computational Methodology:
# (§3) Formation of Cr^3+.L1 was also confirmed from the result “Formation of Cr3+.L1 was also confirmed from the result of FAB MS study. Signal at m/z value of 616.87 (Calc 616.75) for Cr3+.L1”.
# [2] = Emission (fluorescence) spectral titration with B-H plot in aqueous Triton X 100 / Tris buffer pH 7.2; format: binding
# Method: as §1, §2, §3
# 3.28×10^−3 M Cr(III) solution in water is prepared and then it is gradually added to a solution of the ligand L1, where effective ligand concentration is 1.59×10^−5 M in a Tris buffer with solution pH of 7.2 having 0.32 mM Triton X 100. Uv-vis and luminescence spectra are recorded in absence and presence of [Cr(III)]. In emission spectra a 200 fold increase in spectral intensity at 583 nm (λext=530 nm and slit 2/2) is observed, while a simultaneous change in solution colour is observed from colourless to pink red (please refer to FIGS. 4 and 6).
# [3] = Relative fluorescence quantum yield w.r.t. Rhodamine B; format: physicochemical; details: with Cr^3+
# Method: as §2, with “indices.” for “indices. Computational Methodology:”
# [4] = Uv-vis and emission titrations in acetonitrile medium; format: binding
# Method: (§4) To envisage the adverse role of high solvation enthalpy of Cr(III) in aqueous medium, similar Uv-vis and emission titrations were carried out in acetonitrile medium using ([Cr(III)]=(0-1.93×10^−4)M; and [L1]=(1.59×10^−5 M) in CH3CN) and the evaluated formation constant for Cr^3+.L1 in acetonitrile was (Ka^Abs=(1.1±0.03)·10^6 M^−1, Ka^Ems=(1.0±0.02)·10^6 M^−1 using λExt: 530 nm and λMon: 583 nm for emission titration). The binding affinity of L1 towards Cr^3+ was evaluated as Ka^ITC=(1.6±0.02)·10^6 M^−1 in acetonitrile medium at 25° C. using ITC experiments. […] Thermodynamic parameters were obtained from ITC studies (ΔG (−(8.48±0.02) kcal mol^−1), ΔH ((−20.8±0.4) kcal mol^−1) and ΔS (−41.4±0.05) cal mol^−1) (all symbols are used according to standard terminology).
# [5] = Isothermal Titration Calorimetry (ITC) in acetonitrile at 25° C.; format: binding
# Method: FIG. 10 depicts Isothermal Titration Calorimetry (ITC) titration profile for the binding of Cr^3+ to receptor L1 at 25° C. in acetonitrile; Top plot: raw data for the sequential 2 μl injection of Cr^3+ (1.2×10^−3 M) into solution of L1 (2.0×10^−4 M) and bottom plot of the heat evolved (kcal per mole) of Cr^3+ added.
# 5.0 mM Tris-HCl aq. buffer solution was used for maintaining solution pH, unless mentioned otherwise. ESI-MS measurements were performed using a Micromass QTof-Micro instrument. FT-IR spectra were recorded as KBr pellets using a Perkin Elmer Spectra GX 2000 spectrometer. ^1H and ^13C NMR spectra were recorded on Bruker 500 MHz FT NMR (model: Avance-DPX 500). Electronic spectra were recorded with a Varian Cary 500 Scan UV-Vis-NIR Spectrophotometer, Isothermal Titration Calorimetry studies were performed in Microcal iTC200, while emission spectra were recorded using either Edinburgh Instrument Xe-900 Spectrofluorometer or PTI. For all spectroscopic studies in aqueous buffer medium as well as for studies with plant/algal cells, L1 self-assembled inside the miceller structure of TX100 was used, unless mentioned otherwise.
# as §4
# [6] = Selectivity towards various metal ions by absorption and emission spectra
# Method: To check the selectivity of Receptor L1 towards various metal ions like Li^+, Na^+, K^+, Cs^+, Mg^2+, Ca^2+, Ba^2+, Sr^2+, Zn^2+, Co^3+, Cu^2+, Ni^2+, Fe^2+, Pb^2+, Hg^2+ change in electronic as well as emission spectra were examined in 0.32 mM Triton X 100 in tris (5 mM, 25 mM NaCl) buffer medium at PH 7.2.
# However only in presence of Cr^3+, a strong absorption band at 562 nm and intense emission band at 583 nm (for λext=530 nm) are observed. These changes are also associated with simultaneous visually detectable change in solution colour from colourless to pink red.
# A solution of the perchlorate salts of the respective ion (Li^+, Na^+, K^+, Cs^+, Ca^2+, Mg^2+, Ba^2+, Sr^2+, Fe^2+, Ni^2+, Co^2+, Cu^2+, Mn^2+, Cd^2+, Pb^2+, Ba^2+, Zn^2+, Sr^2+, Hg^2+ and Cr^3+) and nitrate salts of lanthanides ions (Tb^3+, Ho^3+, Ce^3+, Sm^3+, Rb^+, Pr^3+, Eu^3+, Gd^3+, Nd^3+, Dy^3+, Tm^3+, Er^3+, Yb^3+) in pure aqueous medium were used for all studies. The effective final concentrations of all metal salts were maintained at 1.62×10^−4 M.
# A stock solution of the receptor L1 (6.9×10^−4 M) was prepared in acetonitrile medium and 57 μL of this stock solution was added to 2.5 ml of 0.4 mM TX100 in Tris-HCL aqueous buffer medium having solution pH 7.2 to make the effective ligand concentration of 1.59×10^−5 M. The solution was used for all the photophysical studies. […]
# [7] = predominantly organic medium; cited from earlier work
# [8] = aqueous medium at RT; cited from earlier work
# [9] = [Triton X 100] 0.23 mM, aqueous medium
# [10] = [Triton X 100] 0.32 mM, Tris buffer pH 7.2
smiles,measurement,setting,value
C=CCN(CC=C)CCN1C(=O)c2ccccc2C12c1ccc(N(CC)CC)cc1Oc1cc(N(CC)CC)ccc12 [Ligand L1],"Binding Constant, Uv-Vis Spectroscopic Method",[1]; [9],1960 M⁻¹
same,"Binding Constant, Uv-Vis Spectroscopic Method",[1]; [10],2400 M⁻¹
same,"Binding Constant, Uv-Vis Spectroscopic Method","[1]; [Triton X 100] 0.4 mM, aqueous medium",3200 M⁻¹
same,"Ka^Abs, binding constant for formation of Cr^3+.L1","[1]; aq. buffer medium pH 7.2, absorption titration, B-H plot",3.2±0.2)·10^3 M^−1
same,Increase in emission spectral intensity at 583 nm on adding Cr(III),"[2]; L1 1.59×10^−5 M, 0.32 mM Triton X 100, Tris pH 7.2, λext 530 nm",200 fold
same,"Binding Constant, Fluorescence Spectroscopic Method",[2]; [9],2000 M⁻¹
same,"Binding Constant, Fluorescence Spectroscopic Method",[2]; [10],2830 M⁻¹
same,"Binding Constant, Fluorescence Spectroscopic Method","[2]; [Triton X 100] 0.4 mM, Tris pH 7.2",3250 M⁻¹
same,"Ka^Ems, binding constant for formation of Cr^3+.L1","[2]; aq. buffer medium pH 7.2, emission titration, B-H plot",(3.3±0.2)·10^3 M^−1
same,Quantum yield in water w.r.t. Rhodamine B,[3]; [Triton X 100] 0.23 mM,0.185
same,Quantum yield in water w.r.t. Rhodamine B,[3]; [Triton X 100] 0.32 mM,0.211
same,Quantum yield in water w.r.t. Rhodamine B,[3]; [Triton X 100] 0.4 mM,0.22
same,"Ka^Abs, formation constant for Cr^3+.L1",[4],(1.1±0.03)·10^6 M^−1
same,"Ka^Ems, formation constant for Cr^3+.L1","[4]; λExt 530 nm, λMon 583 nm",(1.0±0.02)·10^6 M^−1
same,"Ka^ITC, binding affinity towards Cr^3+",[5],(1.6±0.02)·10^6 M^−1
same,ΔH of binding,[5]; ITC,-20.8 ± 0.4 kcal/mol
same,ΔS of binding,[5]; ITC,-41.4 ± 0.05 cal/(mol·K)
same,"Selectivity for Cr(III) over other metal ions (absorption 562 nm, emission 583 nm, colour)","[6]; Triton X 100 in Tris buffer pH 7.2, alkali, alkaline earth and transition metal ions",selective/specific for Cr (III); also recorded: no such changes are observed
same,Interference of Cr(VI),[6]; pure aqueous medium,does not have any interferences of Cr(VI) at all
O=c1ccc2cc(/N=C/c3c4ccccc4cc4ccccc34)ccc2o1 [Receptors 3],Selectivity towards Cr(III),[7],high selectivity towards Cr(III)
CCN(CC)c1ccc2c(-c3ccccc3C(=O)O)c3ccc(=[N+](CC)CC)cc-3oc2c1.[Cl-] [Rhodamine B],Fluorescence quantum yield φf (reference),[8],0.3
